Assay results taken from the NIST ThermoML archive (doi:10.1021/je400055v).

Details: Liquid, Vibrating tube method

Cc1ccccc1O [2-methylphenol]
Details	mass density [kg/m3]
313.2 K, 1022 kPa	1027.5
313.2 K, 2031 kPa	1028.1
313.2 K, 3017 kPa	1028.7
313.2 K, 4012 kPa	1029.2
313.2 K, 5018 kPa	1029.8
313.2 K, 6010 kPa	1030.4
313.2 K, 7005 kPa	1030.9
313.2 K, 8006 kPa	1031.5
313.2 K, 9004 kPa	1032
313.2 K, 10005 kPa	1032.6
323.16 K, 1013 kPa	1018.7
323.16 K, 2039 kPa	1019.3
323.16 K, 3007 kPa	1019.9
323.16 K, 4009 kPa	1020.5
323.16 K, 5005 kPa	1021.1
323.16 K, 6004 kPa	1021.7
323.16 K, 6999 kPa	1022.2
323.16 K, 8008 kPa	1022.8
323.16 K, 9002 kPa	1023.4
323.16 K, 10005 kPa	1024
333.1 K, 1010 kPa	1009.9
333.1 K, 2033 kPa	1010.5
333.1 K, 3009 kPa	1011.1
333.1 K, 4014 kPa	1011.8
333.1 K, 5004 kPa	1012.4
333.1 K, 5998 kPa	1013
333.1 K, 7000 kPa	1013.6
333.1 K, 8009 kPa	1014.2
333.1 K, 9004 kPa	1014.8
333.1 K, 10010 kPa	1015.4
343.06 K, 1023 kPa	1000.8
343.06 K, 2024 kPa	1001.6
343.06 K, 3015 kPa	1002.2
343.06 K, 4003 kPa	1002.9
343.06 K, 5009 kPa	1003.6
343.06 K, 6005 kPa	1004.2
343.06 K, 7008 kPa	1004.8
343.06 K, 8003 kPa	1005.5
343.06 K, 8999 kPa	1006.1
343.06 K, 10004 kPa	1006.7
352.99 K, 1043 kPa	991.9
352.99 K, 2000 kPa	992.6
352.99 K, 3034 kPa	993.3
352.99 K, 4015 kPa	994
352.99 K, 5033 kPa	994.6
352.99 K, 6007 kPa	995.3
352.99 K, 7016 kPa	996
352.99 K, 8006 kPa	996.7
352.99 K, 9015 kPa	997.3
352.99 K, 10014 kPa	998
